Measured values from ChEMBL document CHEMBL5108038, “Development of Inhibitors Targeting the V-Domain Ig Suppressor of T Cell Activation Signal Pathway” (J Med Chem, 2022).
One block for each compound: values may come before it.

Legend:
[1] = biological target: T1, V-type immunoglobulin domain-containing suppressor of T-cell activation (Homo sapiens, UniProt Q9H7M9); assay: Binding affinity to VISTA (unknown origin) assessed as dissociation constant by MST method
T1 sequence (Q9H7M9 whole entry): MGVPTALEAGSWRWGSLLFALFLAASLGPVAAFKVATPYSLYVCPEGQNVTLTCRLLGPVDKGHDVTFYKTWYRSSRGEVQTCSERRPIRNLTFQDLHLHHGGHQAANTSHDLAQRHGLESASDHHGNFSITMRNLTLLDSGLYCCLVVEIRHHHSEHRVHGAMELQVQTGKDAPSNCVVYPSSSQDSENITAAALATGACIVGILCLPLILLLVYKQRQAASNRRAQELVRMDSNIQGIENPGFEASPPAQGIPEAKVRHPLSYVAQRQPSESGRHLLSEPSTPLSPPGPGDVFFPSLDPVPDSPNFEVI

[2] = Inhibition of PD-L1 in human PBMC; assay type: cell-based
[3] = Antitumor immunity in PBMC (unknown origin) assessed as inhibition of VSIG8 binding to VISTA; assay type: functional, cell-based
[4] = biological target: T2, V-set and immunoglobulin domain-containing protein 8 (Homo sapiens, UniProt P0DPA2); assay: Binding affinity to human VSIG8 assessed as dissociation constant by MST method
T2 sequence (P0DPA2 whole entry): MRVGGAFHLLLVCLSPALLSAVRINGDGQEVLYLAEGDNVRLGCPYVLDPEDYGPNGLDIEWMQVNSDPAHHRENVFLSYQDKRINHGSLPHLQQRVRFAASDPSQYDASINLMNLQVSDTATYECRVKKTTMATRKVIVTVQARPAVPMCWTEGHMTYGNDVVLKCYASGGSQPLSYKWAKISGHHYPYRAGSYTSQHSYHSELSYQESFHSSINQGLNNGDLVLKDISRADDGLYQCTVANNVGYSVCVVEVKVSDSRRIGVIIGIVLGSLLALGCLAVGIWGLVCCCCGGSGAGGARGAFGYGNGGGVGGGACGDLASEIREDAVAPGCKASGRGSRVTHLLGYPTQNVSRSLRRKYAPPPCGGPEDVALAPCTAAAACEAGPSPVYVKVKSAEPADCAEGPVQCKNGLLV

[5] = Inhibition of VISTA/VSIG3 protein protein interaction (unknown origin) by FRET method; parameters: species or system Homo sapiens
[6] = biological target: Programmed cell death protein 1/Programmed cell death 1 ligand 1 (Homo sapiens) (UniProt Q15116+Q9NZQ7); assay: Inhibition of recombinant PD-1/PD-L1 signalling route (unknown origin) at 10 uM by HTRF assay relative to control; assay type: protein-complex assay
[7] = biological target: T3, V-type immunoglobulin domain-containing suppressor of T-cell activation (Homo sapiens) (UniProt Q9H7M9); assay: Inhibition of recombinant VISTA signalling pathway (unknown origin) at 10 uM by HTRF assay relative to control
T3 sequence (whole entry): T1 sequence (Q9H7M9 whole entry)

- Kd [1]: 0.647 µM
Compound: Cc1ccc2nc(Nc3nc(O)cc(CSc4nnc(C)s4)n3)nc(C)c2c1

- EC50 [3]: 1.46 µM
- Kd [4]: 6.7 µM
Compound: COc1cc(NC(=O)Nc2c(-c3ccncc3)[nH]c3ccc(Cl)cc23)cc(OC)c1

The next lines start with the compound.

Compound: C[C@@H](O)[C@H](NC(=O)N[C@@H](CC(N)=O)c1nc([C@H](N)CO)no1)C(=O)O
- EC50 [2]: 0.0661 µM

Compound: CN(C)c1n/c(=N\Cc2ccco2)ss1
- IC50 [5]: 4.8 µM

Compound: C[C@@H](O)[C@H](NC(=O)C1(C(=O)N[C@@H](CC(N)=O)c2nc([C@H](N)CO)no2)CCCC1)C(=O)O
- inhibition [6]: 92%
- inhibition [7]: 81%
